From US8859559B2, “Substituted pyrazines and their use in the treatment of disease” (Boehringer Ingelheim International GmbH, priority 2011, dated 2014) come the findings set out here.

In the assay the target is T1, ENaC (Epithelial Sodium Channel) (Mus musculus, UniProt Q61180+Q9WU38+Q9WU39).
T1 construct: Mouse kidney M-1 cells were cultivated in DMEM; endogenous in cells; host or cells: Mouse kidney M-1 cells (dexamethasone-treated, on transwell filters)
T1 sequence (Q61180 1-699): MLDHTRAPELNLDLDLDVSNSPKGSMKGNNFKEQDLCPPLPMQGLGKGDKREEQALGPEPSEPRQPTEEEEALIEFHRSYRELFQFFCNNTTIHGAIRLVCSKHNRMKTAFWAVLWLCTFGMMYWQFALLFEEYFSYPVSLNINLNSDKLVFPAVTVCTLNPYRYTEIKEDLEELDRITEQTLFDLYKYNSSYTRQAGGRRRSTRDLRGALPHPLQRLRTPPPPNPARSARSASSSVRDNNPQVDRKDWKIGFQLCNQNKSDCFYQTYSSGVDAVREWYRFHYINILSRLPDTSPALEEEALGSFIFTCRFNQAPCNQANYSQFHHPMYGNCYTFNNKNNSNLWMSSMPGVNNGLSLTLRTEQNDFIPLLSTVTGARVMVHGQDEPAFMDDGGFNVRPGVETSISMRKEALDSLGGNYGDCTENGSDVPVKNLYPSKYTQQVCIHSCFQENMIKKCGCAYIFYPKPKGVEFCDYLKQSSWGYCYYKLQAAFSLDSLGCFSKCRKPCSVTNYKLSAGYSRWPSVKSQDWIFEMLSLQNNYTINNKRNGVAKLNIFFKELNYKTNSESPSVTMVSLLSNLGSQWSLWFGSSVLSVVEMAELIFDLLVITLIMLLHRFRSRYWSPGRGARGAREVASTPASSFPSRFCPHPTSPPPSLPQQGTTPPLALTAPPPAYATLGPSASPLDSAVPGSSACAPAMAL
T1 sequence (Q9WU38 1-638): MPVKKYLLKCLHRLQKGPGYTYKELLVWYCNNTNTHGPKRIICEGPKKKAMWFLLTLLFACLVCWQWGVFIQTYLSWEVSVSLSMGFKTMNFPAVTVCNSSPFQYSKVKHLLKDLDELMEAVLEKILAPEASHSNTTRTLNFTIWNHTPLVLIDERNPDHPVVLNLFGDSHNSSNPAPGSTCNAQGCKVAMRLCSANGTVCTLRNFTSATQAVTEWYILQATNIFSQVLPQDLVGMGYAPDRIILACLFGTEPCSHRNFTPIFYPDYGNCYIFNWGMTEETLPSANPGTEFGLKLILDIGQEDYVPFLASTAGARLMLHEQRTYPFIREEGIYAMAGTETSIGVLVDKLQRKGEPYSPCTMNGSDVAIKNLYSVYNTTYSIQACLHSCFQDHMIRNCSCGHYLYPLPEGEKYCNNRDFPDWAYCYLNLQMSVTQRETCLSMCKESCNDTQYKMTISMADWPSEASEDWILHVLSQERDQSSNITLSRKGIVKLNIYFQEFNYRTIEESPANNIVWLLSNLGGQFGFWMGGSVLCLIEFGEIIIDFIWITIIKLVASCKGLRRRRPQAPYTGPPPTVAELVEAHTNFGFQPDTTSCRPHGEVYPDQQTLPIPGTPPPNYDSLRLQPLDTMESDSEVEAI
T1 sequence (Q9WU39 1-655): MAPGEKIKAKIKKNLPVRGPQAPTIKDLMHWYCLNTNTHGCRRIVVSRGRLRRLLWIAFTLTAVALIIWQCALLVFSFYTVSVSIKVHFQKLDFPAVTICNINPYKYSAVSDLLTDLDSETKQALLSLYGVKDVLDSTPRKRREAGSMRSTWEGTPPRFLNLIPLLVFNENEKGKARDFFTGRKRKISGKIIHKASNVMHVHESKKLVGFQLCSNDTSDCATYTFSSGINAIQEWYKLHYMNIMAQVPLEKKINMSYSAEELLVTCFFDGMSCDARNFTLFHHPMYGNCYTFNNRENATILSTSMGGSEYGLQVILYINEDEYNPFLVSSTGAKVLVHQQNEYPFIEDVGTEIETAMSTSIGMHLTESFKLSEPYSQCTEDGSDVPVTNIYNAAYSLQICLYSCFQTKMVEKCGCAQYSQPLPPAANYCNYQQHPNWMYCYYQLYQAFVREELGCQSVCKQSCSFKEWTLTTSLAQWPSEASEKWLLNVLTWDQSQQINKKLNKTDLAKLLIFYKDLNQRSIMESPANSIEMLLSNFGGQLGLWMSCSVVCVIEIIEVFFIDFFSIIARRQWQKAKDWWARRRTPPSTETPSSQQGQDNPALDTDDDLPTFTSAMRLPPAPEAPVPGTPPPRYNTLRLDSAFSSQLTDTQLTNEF
As to the kind of experiment: Ussing chamber: inhibition of amiloride sensitive short circuit current (I_sc) in M-1 cells. Type of assay: cell-based. Particulars: mouse kidney M-1 cells. In a few lines: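 Mouse kidney M-1 cells grown 10-12 days on transwell filters with 5 μM dexamethasone; I_sc recorded under voltage clamp at 37° C in Caco-2 transport buffer. Compounds added apically at 3 μM or 1-3-10 μM; 3 μM apical amiloride added at the end defines the amiloride-sensitive current; results as % inhibition of amiloride effect or IC50.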

In the case of `NC(=NC(=O)c1nc(Cl)c(N)nc1N)NC1CCN(Cc2ccc(-c3cn(CCOCCOCCOCCNC(=O)c4cc(OCCOCCOCCO)cc(OCCOCCOCCO)c4)nn3)cc2)CC1` [Example 5.7], half-maximal inhibition (IC50) was put at 45 nM.
Next, `NC(=NC(=O)c1nc(Cl)c(N)nc1N)NC1CCN(Cc2ccc(OCc3cn(CCOCCOCCOCCNC(=O)c4cc(OCCOCCOCCO)cc(OCCOCCOCCO)c4)nn3)cc2)CC1` [Example 5.8]: 52 nM.
In the case of `NC(=NC(=O)c1nc(Cl)c(N)nc1N)NC1CCN(Cc2cccc(-c3cn(CCOCCOCCOCCOCCOCCO)nn3)c2)CC1` [Example 5.9], the IC50 (as a rule, the point on the concentration scale where inhibition reaches its midpoint) turned out to be 10 nM.
The result for `NC(=NC(=O)c1nc(Cl)c(N)nc1N)NC1CCN(Cc2cccc(-c3cn(CCOCCOCCOCCNC(=O)c4cc(OCCOCCOCCO)cc(OCCOCCOCCO)c4)nn3)c2)CC1` [Example 5.10] reads 31 nM; that for `NC(=NC(=O)c1nc(Cl)c(N)nc1N)NC1CCN(Cc2cccc(-c3cn(CCOCCOCCOCCNCCOCCOCCO)nn3)c2)CC1` [Example 5.11], 7 nM; that for `NC(=NC(=O)c1nc(Cl)c(N)nc1N)NC1CCN(Cc2cccc(-c3cn(CCOCCOCCOCCNC(=O)c4cc(OCCOCCOCCOCCO)cc(OCCOCCOCCOCCO)c4)nn3)c2)CC1` [Example 5.12], 62 nM.
Next, `N/C(=N\C(=O)c1nc(Cl)c(N)nc1N)NC1CCN(Cc2ccc(CP(=O)(O)O)cc2)CC1` [Example 7.1]: 477 nM; `N/C(=N\C(=O)c1nc(Cl)c(N)nc1N)NC1CCN(C(C(=O)O)c2ccccc2)CC1` (centres unmarked) [Example 8.1]: 136 nM.
Molecule `NC(=NC(=O)c1nc(Cl)c(N)nc1N)NC1CCN(Cc2ccc(-n3cc(C(=O)O)ccc3=O)cc2)CC1` [Example 8.4] displayed a half-inhibitory concentration (IC50) of 210 nM.
The result for `NC(=NC(=O)c1nc(Cl)c(N)nc1N)NC1CCN(Cc2ccc(OCC(=O)O)c(OCC(=O)O)c2)CC1` [Example 8.5] reads 151 nM; that for `NC(=NC(=O)c1nc(Cl)c(N)nc1N)NC1CCN(Cc2cc(C(=O)O)cc(C(=O)NCCOCCO)c2)CC1` [Example 8.6], 53 nM.
`NC(=NC(=O)c1nc(Cl)c(N)nc1N)NC1CCN(Cc2ccccc2C(=O)O)CC1` [Example 8.7] displayed an IC50 of 243 nM.
The result for `N/C(=N\C(=O)c1nc(Cl)c(N)nc1N)NC1CCN(Cc2ccc(OCC(=O)O)cc2)CC1` [Example 8.8] reads 86 nM; that for `COc1cc(C(=O)O)ccc1CN1CCC(NC(N)=NC(=O)c2nc(Cl)c(N)nc2N)CC1` [Example 8.9], 74 nM; that for `NC(=NC(=O)c1nc(Cl)c(N)nc1N)NC1CCN(Cc2cccc(CC(=O)O)c2)CC1` [Example 8.10], 24 nM.
Next, `NC(=NC(=O)c1nc(Cl)c(N)nc1N)NC1CCN(Cc2ccc(C(=O)O)cc2Cl)CC1` [Example 8.11]: 50 nM.
The result for `NC(=NC(=O)c1nc(Cl)c(N)nc1N)NC1CCN(Cc2ccc(Cn3cc(C(=O)O)ccc3=O)cc2)CC1` [Example 8.12] reads 39 nM; that for `NC(=NC(=O)c1nc(Cl)c(N)nc1N)NC1CCN(Cc2ccc(CC(=O)O)cc2)CC1` [Example 8.13], 44 nM; that for `NC(=NC(=O)c1nc(Cl)c(N)nc1N)NC1CCN(Cc2ccc(CCC(=O)O)cc2)CC1` [Example 8.14], 30 nM.
`NC(=NC(=O)c1nc(Cl)c(N)nc1N)NC1CCN(Cc2cccc(OCC(=O)O)c2)CC1` [Example 8.15] gave an IC50 of 37 nM.
`NC(=NC(=O)c1nc(Cl)c(N)nc1N)N[C@H]1CCN(Cc2ccc(OCC(=O)O)cc2)C1` [Example 8.16] gave an IC50 of 31 nM.
The result for `NCc1ccc(CN2CCC(N/C(N)=N/C(=O)c3nc(Cl)c(N)nc3N)CC2)cc1` [Example 9.1] reads 7 nM; that for `NC(N)=NCc1ccc(CN2CCC(N/C(N)=N/C(=O)c3nc(Cl)c(N)nc3N)CC2)cc1` [Example 10.1], 3 nM.
